Reference: US20230044787A1, “TRICYCLE DIHYDROIMIDAZOPYRIMIDONE DERIVATIVE, PREPARATION METHOD THEREOF, PHARMACEUTICAL COMPOSITION AND USE THEREOF” (priority 2019, published 2023)

The compounds below were run against T1, Lp-PLA2 (Homo sapiens, UniProt Q13093) (assay: Lipoprotein-associated phospholipase A2 (Lp-PLA2) human plasma assay (Thio-PAF assay)). Conditions: Comparison of activity data (I); pooled human plasma, 2-thio-PAF substrate, 30-min pre-incubation.
T1 construct: aliquoted and thawed 40 μL of pooled human plasma was previously added; from tissue; host or cells: pooled human plasma
T1 sequence (Q13093 22-441): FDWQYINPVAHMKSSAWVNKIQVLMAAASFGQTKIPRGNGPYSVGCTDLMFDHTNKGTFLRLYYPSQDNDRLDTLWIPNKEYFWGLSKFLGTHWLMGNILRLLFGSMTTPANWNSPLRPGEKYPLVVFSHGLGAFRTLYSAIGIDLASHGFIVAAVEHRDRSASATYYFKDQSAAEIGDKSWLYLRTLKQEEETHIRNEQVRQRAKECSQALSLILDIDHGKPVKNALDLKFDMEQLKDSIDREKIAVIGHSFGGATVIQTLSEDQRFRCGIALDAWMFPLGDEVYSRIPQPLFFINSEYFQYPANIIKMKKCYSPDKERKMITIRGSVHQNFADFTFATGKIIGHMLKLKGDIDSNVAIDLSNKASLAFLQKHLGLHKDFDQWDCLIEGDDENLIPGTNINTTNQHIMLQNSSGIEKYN
Assay type: biochemical
Description: Lipoprotein-Associated Phospholipase A2 (Lp-PLA2) Human Plasma Assay
The amount of sulfhydryl groups is continuously determined by the reaction with CPM (7-diethylamino-3-(4′-maleimidophenyl)-4-methylcoumarin), and the CPM is a maleimide of which fluorescence increases after Michael addition of sulfhydryl group. This assay can detect Lp-PLA2 activity in human plasma, as determined by specific inhibition of Lp-PLA2 inhibitors.
Thio-PAF assay was performed as quenched 75 μL assay. Compound source plate was prepared for each compound by preparing 1:3 (by volume) serial dilutions in pure DMSO in a 96-well microplate. The compound on the source plate was diluted 20-fold by transferring 3 μL of the compound from the compound source plate into a 96-well microplate pre-added with 57 μL of assay buffer by Rainin multichannel pipette. The assay buffer described above consisted of 50 mM HEPES, pH 7.4, 150 mM NaCl, 1 mM CHAPS. 1 μL of the 20-fold diluted compound was transferred by Rainin multichannel pipette into a 96-well Greiner 655076 (black) microplate to which aliquoted and thawed 40 μL of pooled human plasma was previously added. The plate was shaken for 20 seconds on a microplate shaker to mix well. After a 30-min pre-incubation at room temperature, 10 μL of substrate solution was added to the 96-well Greiner 655076 (black) microplate by Rainin multichannel pipette, in which the substrate solution contained 2.5 mM 2-thio-PAF [from ethanol stock], 32 μM CPM [from DMSO stock], and 3.2 mM NEM (N-ethylmaleimide) [freshly prepared in DMSO per experiment] in assay buffer consisting of 50 mM HEPES, pH 7.4; 150 mM NaCl; 1 mM CHAPS. After 2 min, the reaction was quenched with […] of 5% trifluoroacetic acid (TFA) in water. The plate was centrifuged at 2000 rpm for 1 minute. The plate was read at ex:380/em:485 using a Biotek Synergy H1 (H1MF) microplate reader. IC50 data, curves and QC analysis were performed using GraphPad Prism 6.0 and Excel.

SMILES | IC50 [nM]
O=c1nc(OCc2cc(F)c(F)c(F)c2)cc2n1CC13CCC(CC1)N23 [Example 52, 3-((3,4,5-trifluorobenzyl)oxy)-7,8-dihydro-1H,6H,9H-6,8a-ethanopyrrolo[1′,2′:3,4] imidazo[1,2-c]pyrimidin-1-one] | 16

Same assay, conditions: Lp-PLA2 human plasma assay (Thio-PAF), pooled human plasma, 30-min pre-incubation at room temperature

SMILES | IC50 [nM]
O=c1nc(OCc2ccc(Oc3ccc(F)c(C(F)(F)F)c3)nc2)cc2n1CC13CCC(CC1)N23 [Example 49, 3-((6-(4-fluoro-3-(trifluoromethyl)phenoxy)pyridin-3-yl)methoxy)-7,8-dihydro-1H,6H,9H-6,8a-ethanopyrrolo[1′,2′:3,4] imidazo[1,2-c]pyrimidin-1-one] | 168
O=c1nc(OCc2cc(F)c(F)c(F)c2)cc2n1CC13CCC(CC1)N23 [Example 52, 3-((3,4,5-trifluorobenzyl)oxy)-7,8-dihydro-1H,6H,9H-6,8a-ethanopyrrolo[1′,2′:3,4] imidazo[1,2-c]pyrimidin-1-one] | 16
O=c1nc(OCc2cc(F)c(Oc3ccnc(C(F)(F)F)c3)c(F)c2)cc2n1CC13CCC(CC1)CN23 [Example 53, 3-((3,5-difluoro-4-((2-(trifluoromethyl)pyridin-4-yl)oxy)benzyl)oxy)-6,7,8,9-tetrahydro-1H,10H-7,9a-ethanopyrido[1′,2′:3,4] imidazo[1,2-c]pyrimidin-1-one] | 14.3
CC12CCCN1c1cc(OCc3cc(F)c(Oc4ccnc(C(F)(F)F)c4)c(F)c3)nc(=O)n1C2 (stereo not drawn) [Example 54, 3-((3,5-difluoro-4-((2-(trifluoromethyl)pyridin-4-yl)oxy)benzyl)oxy)-8a-methyl-7,8,8a,9-tetrahydro-1H,6H-pyrrolo[1′,2′:3,4]imidazo [1,2-c]pyrimidin-1-one] | 7.6
CC12CCCN1c1cc(OCc3cc(F)c(Oc4cnc(C(F)(F)F)nc4)c(F)c3)nc(=O)n1C2 (stereo not drawn) [Example 56, 3-((3,5-difluoro-4-((2-(trifluoromethyl)pyrimidin-5-yl)oxy)benzyl)oxy)-8a-methyl-7,8,8a,9-tetrahydro-1H,6H-pyrrolo[1′,2′:3,4]imidazo [1,2-c]pyrimidin-1-one] | 7.7
Cn1cc(Oc2c(F)cc(COc3cc4n(c(=O)n3)CC3(C)CCCN43)cc2F)cn1 (stereo not drawn) [Example 57, 3-((3,5-difluoro-4-((1-methyl-1H-pyrazol-4-yl)oxy)benzyl)oxy)-8a-methyl-7,8,8a,9-tetrahydro-1H,6Hpyrrolo[1′,2′:3,4] imidazo[1,2-c]pyrimidin-1-one] | 62.2
CC12CCCN1c1cc(OCc3ccc(Oc4ccc(F)c(C(F)(F)F)c4)nc3)nc(=O)n1C2 (stereo not drawn) [Example 58, 3-((6-(4-fluoro-3-(trifluoromethyl)phenoxy)pyridin-3-yl)methoxy)-8a-methyl-7,8,8a,9-tetrahydro-1H,6H-pyrrolo[1′,2′:3,4]imidazo [1,2-c]pyrimidin-1-one] | 204
CC12CCCN1c1cc(OCc3ccc(F)c(F)c3)nc(=O)n1C2 (stereo not drawn) [Example 62, 3-((3,4-difluorobenzyl)oxy)-8a-methyl-7,8,8a,9-tetrahydro-1H,6H-pyrrolo[1′,2′:3,4]imidazo [1,2-c]pyrimidin-1-one] | 13
CCC12CCCN1c1cc(OCc3cc(F)c(Oc4ccnc(C(F)(F)F)c4)c(F)c3)nc(=O)n1C2 (stereo not drawn) [Example 63, 3-((3,5-difluoro-4-((2-(trifluoromethyl)pyridin-4-yl)oxy)benzyl)oxy)-8a-ethyl-7,8,8a,9-tetrahydro-1H,6H-pyrrolo[1′,2′:3,4]imidazo [1,2-c]pyrimidin-1-one] | 8.7
CCC12CCCN1c1cc(OCc3cc(F)c(Oc4cnc(C(F)(F)F)nc4)c(F)c3)nc(=O)n1C2 (stereo not drawn) [Example 64, 3-((3,5-difluoro-4-((2-(trifluoromethyl)pyrimidin-5-yl)oxy)benzyl)oxy)-8a-ethyl-7,8,8a,9-tetrahydro-1H,6H-pyrrolo[1′,2′:3,4]imidazo [1,2-c]pyrimidin-1-one] | 22.6
CCC12CCCN1c1cc(OCc3ccc(Oc4cc(C#N)cc(C(F)(F)F)c4)c(F)c3)nc(=O)n1C2 (stereo not drawn) [Example 65] | 12.1
CC12CCCCN1c1cc(OCc3cc(F)c(Oc4cnc(C(F)(F)F)nc4)c(F)c3)nc(=O)n1C2 (stereo not drawn) [Example 67, 3-((3,5-difluoro-4-((2-(trifluoromethyl)pyrimidin-5-yl)oxy)benzyl)oxy)-9a-methyl-6,7,8,9,9a,10-hexahydro-1H-pyrido[1′,2′:3,4]imidazo [1,2-c]pyrimidin-1-one] | 8.7
Cn1cc(Oc2c(F)cc(COc3cc4n(c(=O)n3)CC3(C)CCCCN43)cc2F)cn1 (stereo not drawn) [Example 68, 3-((3,5-difluoro-4-((1-methyl-1H-pyrazol-4-yl)oxy)benzyl)oxy)-9a-methyl-6,7,8,9,9a,10-hexahydro-1H-pyrido[1′,2′:3,4]imidazo [1,2-c]pyrimidin-1-one] | 50
CC12CCCCN1c1cc(OCc3ccc(Oc4ccc(F)c(C(F)(F)F)c4)nc3)nc(=O)n1C2 (stereo not drawn) [Example 69, 3-((6-(4-fluoro-3-(trifluoromethyl)phenoxy)pyridin-3-yl)methoxy)-9a-methyl-6,7,8,9,9a,10-hexahydro-1H-pyrido[1,2′:3,4]imidazo [1,2-c]pyrimidin-1-one] | 325
CC12CCCCN1c1cc(OCc3ccc(Oc4cccc(C(F)(F)F)c4)c(C#N)c3)nc(=O)n1C2 (stereo not drawn) [Example 71, 5-(((-9a-methyl-1-oxo-6,7,8,9,9a,10-hexahydro-1H-pyrido[1′,2′:3,4]imidazo [1,2-c]pyrimidin-3-yl)oxy)methyl)-2-(3-(trifluoromethyl)phenoxy) benzonitrile] | 7.9

Stronger by IC50, values ahead:

IC50 [nM] | SMILES
2.7 | N#Cc1cc(COc2cc3n(c(=O)n2)CC24CCC(CC2)N34)ccc1Oc1ccc(Cl)c(C(F)(F)F)c1 [Example 50, 5-(((1-oxo-7,8-dihydro-1H,6H,9H-6,8a-ethanopyrrolo[1′,2′:3,4]imidazo[1,2-c]pyrimidin-3-yl)oxy)methyl)-2-(4-chloro-3-(trifluoromethyl)phenoxy) benzonitrile]
3.3 | N#Cc1cc(COc2cc3n(c(=O)n2)CC24CCC(CC2)N34)ccc1Oc1ccnc(C(F)(F)F)c1 [Example 51]
6.5 | CC12CCCN1c1cc(OCc3cc(F)c(Oc4ccnc(OC(F)(F)F)c4)c(F)c3)nc(=O)n1C2 (stereo not drawn) [Example 55, 3-((3,5-difluoro-4-((2-(trifluoromethoxy)pyridin-4-yl)oxy)benzyl)oxy)-8a-methyl-7,8,8a,9-tetrahydro-1H,6H-pyrrolo[1′,2′:3,4]imidazo [1,2-c]pyrimidin-1-one]
2.4 | CC12CCCN1c1cc(OCc3ccc(Oc4cccc(C(F)(F)F)c4)c(C#N)c3)nc(=O)n1C2 (stereo not drawn) [Example 59, 5-(((8a-methyl-1-oxo-7,8,8a,9-tetrahydro-1H,6H-pyrrolo[1′,2′:3,4]imidazo [1,2-c]pyrimidin-3-yl)oxy)methyl)-2-(3-(trifluoromethyl)phenoxy) benzonitrile]
6.6 | CC12CCCN1c1cc(OCc3ccc(Oc4ccc(C(F)(F)F)cc4)c(C#N)c3)nc(=O)n1C2 (stereo not drawn) [Example 60, 5-(((8a-methyl-1-oxo-7,8,8a,9-tetrahydro-1H,6H-pyrrolo[1′,2′:3,4]imidazo [1,2-c]pyrimidin-3-yl)oxy)methyl)-2-(4-(trifluoromethyl)phenoxy) benzonitrile]
3.4 | CC12CCCN1c1cc(OCCc3ccc(Oc4ccc(Cl)c(C(F)(F)F)c4)cc3)nc(=O)n1C2 (stereo not drawn) [Example 61, 3-(4-(4-chloro-3-(trifluoromethyl)phenoxy)phenethoxy)-8a-methyl-7,8,8a,9-tetrahydro-1H,6H-pyrrolo[1′,2′:3,4]imidazo [1,2-c]pyrimidin-1-one]
6.9 | CC12CCCCN1c1cc(OCc3cc(F)c(Oc4ccnc(C(F)(F)F)c4)c(F)c3)nc(=O)n1C2 (stereo not drawn) [Example 66, 3-((3,5-difluoro-4-((2-(trifluoromethyl)pyridin-4-yl)oxy)benzyl)oxy)-9a-methyl-6,7,8,9,9a,10-hexahydro-1H-pyrido[1′,2′:3,4]imidazo [1,2-c]pyrimidin-1-one]
6.9 | CC12CCCCN1c1cc(OCc3ccc(Oc4ccc(Cl)c(C(F)(F)F)c4)c(C#N)c3)nc(=O)n1C2 (stereo not drawn) [Example 70, 2-(4-chloro-3-(trifluoromethyl)phenoxy)-5-(((-9a-methyl-1-oxo-6,7,8,9,9a,10-hexahydro-1H-pyrido[1′,2′:3,4]imidazo [1,2-c]pyrimidin-3-yl)oxy)methyl)benzonitrile]
